ChEMBL document CHEMBL1134716, “Synthesis and evaluation of GGPP geometric isomers: divergent substrate specificities of FTase and GGTase I” (Bioorg Med Chem Lett, 2001)

Tests used:
[1] = molecular target: Protein farnesyltransferase (Homo sapiens) (UniProt P49354+P49356); assay: Activity as substrate for recombinant mammalian Farnesyltransferase expressed in baculovirus; activity expressed as Vmax relative to the Vmax of E,E-FPP
[2] = system: CC(C)=CCC/C(C)=C/CC/C(C)=C/CC/C(C)=C\COP(=O)(O)OP(=O)(O)O; assay: (§1) Kinetic constant for recombinant mammalian Farnesyltransferase expressed in baculovirus by fluorescence assay
[3] = system: CC(C)=CCC/C(C)=C/CC/C(C)=C\CC/C(C)=C/COP(=O)(O)OP(=O)(O)O; assay: as §1
[4] = system: CC(C)=CCC/C(C)=C/CC/C(C)=C\COP(=O)(O)OP(=O)(O)O; assay: as §1
[5] = system: CC(C)=CCC/C(C)=C\CC/C(C)=C/COP(=O)(O)OP(=O)(O)O; assay: as §1

Compound	Krel [1]	other results
CC(C)=CCC/C(C)=C/CC/C(C)=C/CC/C(C)=C\COP(=O)(O)OP(=O)(O)O	0.67	
CC(C)=CCC/C(C)=C/CC/C(C)=C\CC/C(C)=C/COP(=O)(O)OP(=O)(O)O	0.4	
CC(C)=CCC/C(C)=C/CC/C(C)=C\COP(=O)(O)OP(=O)(O)O	0.47	
CC(C)=CCC/C(C)=C\CC/C(C)=C/COP(=O)(O)OP(=O)(O)O	0.41	
Protein farnesyltransferase (Homo sapiens) (from UniProt P49354+P49356)		Km [2]: 0.021 µM; Km [3]: 0.481 µM; Km [4]: 0.225 µM; Km [5]: 0.136 µM
